Consider eight molecules from US11357840B2, “Methods and compositions for reducing growth, migration and invasiveness of brain cancer stem cells and improving survival of patients with brain tumors” (HYPERSTEM SA, priority 2014, dated 2022).

No end group written: not given here. *: point of attachment. Boc = CC(C)(C)OC(=O)*; For = O=C*

One assay relates to 4T1 breast cancer cells. Particulars: in vitro; Safholm et al. 2008; cited from earlier work.
In assay [1] the test system is growth factor independent (GFI) hGBM TPCs. Description: Matrigel invasion assay, GFI TPCs. In kind it is cell-based, human. The source says:
Invasion Assays—Matrigel Invasion Assays
An Invasion Assay is an in vitro system to study invasion capability of malignant and normal cells. Specific applications include assessment of the metastatic potential of tumor cells, inhibition of metastasis by extracellular matrix components or antineoplastic drugs, altered expression of cell surface proteins, or matrix metalloproteinases in metastatic cells; and invasion of normal cells such as embryonic stem cells, cytotrophoblasts, endothelial cells, and fibroblasts.
According to one embodiment, the following Matrigel invasion assay protocol is one example of an invasion assay. A coating buffer is prepared and a Matrigel Matrix aliquot is thawed at 4° C. Then, a coating solution is prepared by mixing the Matrigel Matrix with the coating buffer. A number of permeable supports are transferred into the wells of a 24-well plate and 100 ul of the diluted Matrigel is put into each well of the 24-well plate. The plate is then incubated with the coated permeable support at 37° C. for 2 h for gelling. Cells are cultured and prepared for the invasion assay, for example, growth factor dependent hGBM tumor-propagating cells with stem-like characteristic (GFD TPCs) are pretreated with saturating concentrations of recombinant Wnt5a protein (GFD+R5); lentiviral-mediated over-expression GFD cells (GFD+LV5); growth factor independent (GFI) TPCs are treated with saturating concentrations of a Wnt5a-blocking antibody (AbW5) or of a recombinant Wnt3a protein (R3) or of a recombinant secreted frizzled-related protein 1 (SFRP1), or GFI TPCs exposed to Wnt5a-derived peptides termed Box5 (SEQ ID NO: 1), Peptide A (SEQ ID NO: 2) and Peptide B (SEQ ID NO: 3) Cell suspensions are prepared in culture medium containing 5×10^4 cells/mL for the 24 well invasion chambers. An aliquot of 0.5 mL of cell suspension (2.5×10^4 cells) is then added to each 24 well invasion chamber. A chemoattractant is added to the wells of the plate (such as fibronectin as an adhesive substrate). The Cell invasion chambers are then incubated overnight in a humidified tissue culture incubator at 37° C., 5% CO2 atmosphere. The noninvaded cells on the top of the Matrigel coated permeable support are scraped off with a cotton swab. Then the permeable supports from 24-well plates are removed and stained with a cell staining solution and the invaded cells are counted under a light microscope.

Another assay relates to GFI or GFD TPCs. Description: Growth kinetics (expansion) of TPCs. In kind it is cell-based, human. Particulars: FIG. 16g.
Assay [2] deals with hGBM TPC-derived tumors (GFI / GFD TPCs). Put plainly: Orthotopic implantation of luciferase-tagged TPCs into SCID mice. In kind it is in vivo, mouse (SCID). Particulars: for tumor growth (luc-TPC signal, time course): GFI cells treated in culture prior to transplantation (pre-treatment), SCID mice, FIG. 18c; for tumor growth (luc-TPC signals, time course): co-injection (co-treatment) with either GFD or GFI TPCs, FIGS. 18e and 18f; for tumor spread through the brain parenchyma (luciferase immunolabeling): luc-GFI pre-treated vs untreated GFI TPCs, FIG. 18d. The protocol:
Evaluation of Tumorigenic Ability and Invasiveness In Vivo by Orthotopic Implantation
Tumorigenicity was determined by injecting tumor cells into immunodeprived adult severe combined immunodeficiency (SCID) mice. (Galli et al., Cancer Res. 2004, 65:7011-7021). Tumor cells, for example, GFI TPCs, GFD TPCs, GFI TPCs pretreated with Box5 (SEQ ID NO: 1), GFI TPCs pretreated with PeptideA (SEQ ID NO: 2) were injected into SCID mice orthotopically to evaluate the tumorigenic ability and invasiveness in vivo. Also, GFD or GFI TPCs and Wnt5a-blocking protein (AbWt), alone or in combination with BMP4 (B4), Box5 (SEQ ID NO: 1) and PeptideA (SEQ ID NO: 2) were co-injected into the SCID mice.
Mice were sacrificed at different times. Serial histological reconstruction of mouse brain sections were immunolabeled for luciferase for evaluation.
Results from in vivo experiments were all subjected to statistical analysis. Survival curves were estimated using the Kaplan-Meier method.

The test system of the next assay is melanoma cells. Particulars: Jenei et al. 2009; cited from earlier work.
Assay [3] has as its system growth factor dependent hGBM TPCs (GFD TPCs). Description: Matrigel invasion assay, GFD TPCs. In kind it is cell-based, human. Particulars: GFD cells treated with saturating concentrations (GFD+R5); FIG. 16a. The method, then:
According to one embodiment, the following Matrigel invasion assay protocol is one example of an invasion assay. A coating buffer is prepared and a Matrigel Matrix aliquot is thawed at 4° C. Then, a coating solution is prepared by mixing the Matrigel Matrix with the coating buffer. A number of permeable supports are transferred into the wells of a 24-well plate and 100 ul of the diluted Matrigel is put into each well of the 24-well plate. The plate is then incubated with the coated permeable support at 37° C. for 2 h for gelling. […] Then the permeable supports from 24-well plates are removed and stained with a cell staining solution and the invaded cells are counted under a light microscope. […]

Setting [4] is: GFI TPCs exposed to Wnt5a-derived peptides, FIGS. 16c and 16d.
Setting [5] is: saturating concentrations, FIG. 16b.

Consider For-MDGCEL [Foxy-5, reference compound], for which, in the assay with 4T1 breast cancer cells, the “apoptosis or proliferation of 4T1 breast cancer cells” value is reported as “without affecting”; the “migration and invasion of 4T1 breast cancer cells” value was “impaired migration and invasion”.

For the molecule “LECGDM [Peptide A, hexapeptide LECGDM, peptide derivative of Box5]”, the “invasiveness of GFI TPCs” value in assay [1] (setting [4]) is “decreased the invasiveness of GFI TPCs in a dose-dependent fashion”. In addition, the “ability of GFI or GFD TPCs to expand (slope of the growth curves)” value (shortened to “ability … (slope of the growth curves)”) in the assay with GFI or GFD TPCs is “negligible effects”. In assay [2], the “tumor growth (luc-TPC signal, time course)” value was “tumor growth is decreased”; the “tumor growth (luc-TPC signals, time course)” value was “inhibited”; the “tumor spread through the brain parenchyma (luciferase immunolabeling)” value is “spread through the brain parenchyma less”.

As for “Leu-Glu-Gly-Asp-Met (LEGDM) [Peptide B, pentapeptide LEGDM, peptide derivative of Box5]”, the “invasiveness of GFI TPCs” value in assay [1] (setting [4]) is “decreased the invasiveness of GFI TPCs in a dose-dependent fashion”.

For “t-butoxycarbonyl-Met-Asp-Gly-Cys-Glu-Leu (Boc-MDGCEL) [Box5, Wnt5a-derived hexapeptide MDGCEL, antagonist of Wnt5a, modified from Foxy-5, reference compound]”, the “invasiveness of GFI TPCs” value in assay [1] (setting [4]) is listed as “decreased the invasiveness of GFI TPCs in a dose-dependent fashion”. For the same molecule, the “ability … (slope of the growth curves)” value in the assay on GFI or GFD TPCs is “negligible effects”. In assay [2], the “tumor growth (luc-TPC signal, time course)” value is given as “tumor growth is decreased”; the “tumor growth (luc-TPC signals, time course)” value is “inhibited”; the “tumor spread through the brain parenchyma (luciferase immunolabeling)” value is “spread through the brain parenchyma less”. For the same molecule, the “antagonism of Wnt5a-mediated migration and invasion of melanoma cells” value with melanoma cells is listed as “potent, selective antagonist”.

B1: recombinant Wnt5a protein: recombinant Wnt5a protein (protein)
chain: IIGAQPLCSQLAGLSQGQKKLCHLYQDHMQYIGEGAKTGIKECQYQFRHRRWNCSTVDNTSVFGRVMQIGSRETAFTYAVSAAGVVNAMSRACREGELSTCGCSRAARPKDLPRDWLWGGCGDNIDYGYRFAKEFVDARERERIHAKGSYESARILMNLHNNEAGRRTVYNLADVACKCHGVSGSCSLKTCWLQLADFRKVGDALKEKYDSAAAMRLNSRGKLVQVNSRFNSPTTQDLVYIDPSPDYCVRNESTGSLGTQGRLCNKTSEGMDGCELMCCGRGYDQFKTVQTERCHCKFHWCCYVKCKKCTEIVDQFVCK
For the molecule B1, the “cell migration of GFD cells” value in assay [3] is “increase in cell migration”. In addition, in the assay with 4T1 breast cancer cells, the “apoptosis or proliferation of 4T1 breast cancer cells” value is recorded as “without affecting”; the “migration and invasion of 4T1 breast cancer cells” value is “impaired migration and invasion”.

B2: SFRP1: recombinant secreted frizzled-related protein 1, an endogenous Wnt antagonist (protein, UniProt Q8N474 32-314, looked up)
Secreted frizzled-related …: SEYDYVSFQSDIGPYQSGRFYTKPPQCVDIPADLRLCHNVGYKKMVLPNLLEHETMAEVKQQASSWVPLLNKNCHAGTQVFLCSLFAPVCLDRPIYPCRWLCEAVRDSCEPVMQFFGFYWPEMLKCDKFPEGDVCIAMTPPNATEASKPQGTTVCPPCDNELKSEAIIEHLCASEFALRMKIKEVKKENGDKKIVPKKKKPLKLGPIKKKDLKKLVLYLKNGADCPCHQLDNLSHHFLIMGRKVKSQYLLTAIHKWDKKNKEFKNFMKKMKNHECPTFQSVFK
Regarding B2, the “invasiveness of GFI TPCs” value in assay [1] (setting [5]) is listed as “decreased the invasiveness”.

B3: BMP4: bone morphogenetic protein 4, positive control (protein, UniProt P12644 293-408, looked up)
Bone morphogenetic protein 4: SPKHHSQRARKKNKNCRRHSLYVDFSDVGWNDWIVAPPGYQAFYCHGDCPFPLADHLNSTNHAIVQTLVNSVNSSIPKACCVPTELSAISMLYLDEYDKVVLKNYQEMVVEGCGCR
Regarding B3, the “ability … (slope of the growth curves)” value in the assay with GFI or GFD TPCs is “significantly triggered negative deviations from the growth kinetics”.

B4: recombinant Wnt3a protein: recombinant Wnt3a protein (R&D Systems) (protein, UniProt P56704 19-352, looked up)
Protein Wnt-3a: SYPIWWSLAVGPQYSSLGSQPILCASIPGLVPKQLRFCRNYVEIMPSVAEGIKIGIQECQHQFRGRRWNCTTVHDSLAIFGPVLDKATRESAFVHAIASAGVAFAVTRSCAEGTAAICGCSSRHQGSPGKGWKWGGCSEDIEFGGMVSREFADARENRPDARSAMNRHNNEAGRQAIASHMHLKCKCHGLSGSCEVKTCWWSQPDFRAIGDFLKDKYDSASEMVVEKHRESRGWVETLRPRYTYFKVPTERDLVYYEASPNFCEPNPETGSFGTRDRTCNVSSHGIDGCDLLCCGRGHNARAERRREKCRCVFHWCCYVSCQECTRVYDVHTCK
With B4, the “invasiveness of GFI TPCs” value in assay [1] (setting [5]) is reported as “decreased the invasiveness”.
